The supplement of paper PMC10307832

Tests used:
Assay in all cases: relative viability (nuclei count vs DMSO), 5 days (fraction); higher = more cells survive
[1] = compound: C1=CC=C(C(=C1)C2=CC=C(C=C2)C3=CSC4=C3C(=C(C(=O)N4)C#N)O)O + CS(=O)(=O)CCNCc1ccc(-c2ccc3ncnc(Nc4ccc(OCc5cccc(F)c5)c(Cl)c4)c3c2)o1 [Lapatinib] (partner 2 µM)
Method in brief: (§1)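 After 5 days of treatment, lung cancer cells in 1536-well plates were fixed and stained in a single step (final 0.05% Triton X-100, 1% formaldehyde, 1 ug/ml Hoechst) and their nuclei counted on 4× images. Treatment had been applied by pin tool the day after seeding as one drug alone or as a fixed anchor-drug dose with five library-drug doses (not always all listed) in √10 steps. Relative viability is the nuclei count of treated wells divided by that of vehicle wells, and values are medians of duplicate plates.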

[2] = compound: O=C(CCCCCCNC(=O)c1cnc(N(c2ccccc2)c2ccccc2)nc1)NO [Ricolinostat] + CS(=O)(=O)N1CCN(Cc2cc3nc(-c4cccc5[nH]ncc45)nc(N4CCOCC4)c3s2)CC1 [Pictilisib] (partner 1 µM)
Method in brief: as §1

[3] = compound: C1=CC=C(C(=C1)C2=CC=C(C=C2)C3=CSC4=C3C(=C(C(=O)N4)C#N)O)O + CCNC(=O)c1noc(-c2cc(C(C)C)c(O)cc2O)c1-c1ccc(CN2CCOCC2)cc1 [Luminespib] (partner 0.01 µM)
Method in brief: as §1

[4] = compound: C1=CC=C(C(=C1)C2=CC=C(C=C2)C3=CSC4=C3C(=C(C(=O)N4)C#N)O)O + NC(=O)Nc1cc(-c2cccc(F)c2)sc1C(=O)N[C@H]1CCCNC1 [AZD7762] (partner 0.2 µM)
Method in brief: as §1

Cell Line	relative viability ([1]; first compound 0.08 µM)	relative viability ([1]; first compound 0.253 µM)	relative viability ([1]; first compound 0.8 µM)	relative viability ([1]; first compound 2.53 µM)	relative viability ([1]; first compound 8 µM)	relative viability ([2]; first compound 0.08 µM)	relative viability ([2]; first compound 0.253 µM)	relative viability ([2]; first compound 0.8 µM)	relative viability ([2]; first compound 2.53 µM)	relative viability ([3]; first compound 0.08 µM)	relative viability ([3]; first compound 0.253 µM)	relative viability ([3]; first compound 0.8 µM)	relative viability ([3]; first compound 2.53 µM)	relative viability ([3]; first compound 8 µM)	relative viability ([4]; first compound 0.08 µM)	relative viability ([4]; first compound 0.253 µM)	relative viability ([4]; first compound 0.8 µM)	relative viability ([4]; first compound 2.53 µM)	relative viability ([4]; first compound 8 µM)
Calu-6	1.03	1.03	1.21	1.27	1.03	0.898	0.91	0.795	0.648	–	–	–	–	–	–	–	–	–	–
ChaGo-K-1	–	–	–	–	–	0.916	0.676	0.616	0.625	0.706	0.628	0.684	0.597	0.604	0.834	0.936	0.904	0.92	0.838
EBC-1	0.265	0.226	0.223	0.209	0.173	0.372	0.403	0.26	0.165	–	–	–	–	–	–	–	–	–	–
EKVX	0.225	0.208	0.201	0.195	0.211	–	0.444	0.456	0.378	1.14	0.977	0.863	0.912	0.726	0.696	0.699	0.725	0.746	0.595
EMC-BAC-2	0.76	1	0.917	0.894	0.812	0.433	0.578	0.558	0.442	0.953	1.25	1.25	1.26	1.18	1.05	1.21	1.11	0.981	0.939
EPLC-272H	–	0.924	0.849	0.897	1.01	–	0.343	0.285	0.355	0.279	0.282	0.247	0.223	0.282	0.258	–	0.247	0.208	0.183
H3255	0.231	0.292	0.231	0.235	0.25	0.387	0.418	0.484	0.484	0.968	1.02	0.713	0.852	0.895	0.898	1.07	0.757	0.9	0.848
HARA	–	1.03	0.821	0.762	0.738	0.208	0.481	0.503	0.203	0.375	0.707	0.553	0.592	0.682	0.286	0.361	0.345	0.284	0.304
HCC-78	0.575	0.935	0.899	0.781	0.809	–	0.196	0.163	0.184	–	–	–	–	–	0.682	0.744	0.638	0.502	0.551
